Patent US9802929B2, “Benzo five-membered nitrogen heterocyclic piperidine or piperazine derivatives and preparation methods and pharmaceutical compositions thereof” (Shenyang Haiwang Biotechnology Co., Ltd., priority 2012, dated 2017)
Where “and” joins values, the source holds several entries; their conditions need not be identical. Equal entries are not always repeated. Structures can show the parent of a compound that is named as a salt.

What was measured:
Kunming mice = assay: Bone marrow micronucleus test; details: of 1000 polychromatic erythrocytes; oral, four days, test on the 5th day; II-36 120 mg/kg/day, cyclophosphamide 60 mg/kg/day
Procedure: After four days of continuous administration, perform bone marrow micronucleus test on the 5th day.
Positive contro, Cyclophosphamide 60 mg/kg/day; negative control, saline solution 0.1 ml/10 g/day. After four days of continuous administration, perform bone marrow micronucleus test on the 5th day.
The mice were sacrificed by cervical dislocation, and quickly stripped out of the femur and sternum;
blood and muscles were removed, epiphysis was cleaned; then sternum bone marrow was transfer with a hemostat squeeze onto clean slides with drops of calf serum or wash the femoral the marrow with fetal calf serum directly onto clean slides; after mixing, adjust slides well; then put the adjusted and aired slide into a staining jar filled with methanol, and allow to fix for 15 minutes; and then take it out and place in air until dry out; then, use freshly prepared Giemsa application solution (one sample of Giemsa stock solution and nine samples of phosphate buffer pH 6.8), stained for 10 minutes to wash away slide dye with small stream of water, and then observe under a microscope after it is dried.

[1] = system: In-Vitro Vascular Smooth Muscle of Rabbits; assay: Relaxant effect on in vitro rabbit vascular smooth muscle contraction induced by hyperkalemia solution; details: Oryctolagus cuniculus, relaxation of rabbit aortic rings contracted by hyperkalemia solution (K+ 60 mmol/L)
[2] = Acute toxicity test, simplified probability unit method; details: both sexes, mouse, in vivo; oral administration, Kunming mice
Ca^2+ channel = assay: Antagonism of CaCl2 cumulative contraction of rabbit aorta, pA2; details: CaCl2 cumulative contraction after Ca-free hyperkalemia depolarization
From the text: Calcium-free K—H solution: Remove CaCl2 from K—H solution, add an equal number of moles of KCl, and add EDTA^−2Na^+ 0.1 mmol/L, while the other components remain unchanged.
Calcium-free hyperkalemia solution: Remove CaCl2 from hyperkalemia solution, add an equal number of moles of KCl, and add EDTA^−2Na^+ 0.1 mmol/L, while the other components remain unchanged.
(§1) Cut the chest open quickly after stunning, strip out the descending aorta, then after removing the surrounding connective tissue and adipose tissue (if performed serotonin receptor antagonist experiments, endothelial cells should be removed using a smooth stainless steel bars), cut the vessels into 3-5 mm vascular ring, then pass the steel hook through the blood vessel ring, with one end is fixed to the vent hook and the other end connected to the tension transducer, then place the specimens into bath tube containing 20 mL of nutrient solution, and record tension change by tension transducer. Maintain tube temperature at 37±0.5° C., and pass bubbles (95% O2+5% CO2) into the solution as a speed of 1-2 bubbles/minute. Place an initial load of 1.5 g on the rings, and change nutrient every 20 minutes, then balance for 2 hours and start test after baseline readings are stabilized.
After the tension is stabilized, wash the specimen three times and incubate with Ca-free K—H solution for 40 minutes; depolarize with Ca-free hyperkalemia solution for 20 minutes, and then add CaCl2 (10^−6-10^−2 mol/L) to the tube until a maximum response is achieved, and then record the curve. Then wash with K—H solution repeatedly, and replace with fresh K—H solution every 20 minutes; after balancing for 60 minutes and the baseline values are stabilized, wash the specimen again three times, and incubate with Ca-free K—H solution for 40 minutes; depolarize with Ca-free hyperkalemia solution for 20 minutes, and then add compound II-36 (3×10^−6 mol/L) to the tube, and incubate for 20 minutes; then add CaCl2 (10^−6-10^−2 mol/L) until a maximum response is achieved, and then record the curve. Mark CaCl2 contraction as ordinate using maximum response as 100% base. […] PA2 value of compound II-36 is 5.61±0.04 against CaCl2 contraction effect on rabbit aorta.
After the tension is stabilized, wash the specimen three times and incubate with Ca-free K—H solution for 40 minutes; depolarize with Ca-free hyperkalemia solution for 20 minutes, and then add CaCl2 (10^−6-10^−2 mol/L) to the tube until a maximum response is achieved, and then record the curve. […]

α1 receptors = assay: Antagonism of α receptor agonist (noradrenaline / phenylephrine) cumulative contraction of rabbit aorta, pA2
From the text: as §1
After the tension is stabilized, record a certain length of the curve, and add NA (10^−8-10^−4 mol/L) to the tube until a maximum response is achieved, and then record the curve. Then wash the specimen with K—H solution repeatedly, balance for 1 h, add compound II-36 (3×10^−7 mol/L), and 20 minutes later, add NA following a same procedure. Mark NA contraction as ordinate using maximum response as 100% base. […] The larger the PA2 value, the stronger the antagonist effect. It is calculated based on the values of the attached figures by software.
After the tension is stabilized, record a certain length of the curve, and add NA (10^−8-10^−4 mol/L) to the tube until a maximum response is achieved, and then record the curve. Then wash the specimens repeatedly with K—H solution, and refresh K—H solution every 20 minutes, and balance for 60 minutes to allow baseline values are stabilized; then add doxazosin (10^−7 mol/L) and after 15 minutes, add NA in the same way (10^−8-6×10^−5 mol/L). Mark NA contraction as ordinate using maximum response as 100% base. […] The PA2 value of positive control doxazosin is 7.52±0.04 against NA contraction of rabbit aorta.
(§2) After the tension is stabilized, record a certain length of the curve, and add NA (3×10^−7-6×10^−5 mol/L) to the tube until a maximum response is achieved, and then record the curve. Then wash the specimen with K—H solution repeatedly, balance for 1 h, add compound II-65 (3×10^−6 mol/L), and 20 minutes later, add NA (3×10^−7-3×10^−4 mol/L) following a same procedure. Mark NA contraction as ordinate using maximum response as 100% base. […] PA2 value of compound II-65 is 6.02±0.13 against NA contraction effect on rabbit aorta.
After above procedures, wash the specimen repeatedly with K—H solution, balance for 1 hour, add doxazosin (10^−7 mol/L), and add NA in the same way after 15 minutes. Mark NA contraction as ordinate using maximum response as 100% base. […] The PA2 value of positive control doxazosin is 7.16±0.24 against NA contraction of rabbit aorta.
as §2, with “Phenylephrine (10^−6-6×10^−3” for “NA (3×10^−7-6×10^−5”, “II-68 (3×10^−8” for “II-65 (3×10^−6”, “Phenylephrine” for “NA (3×10^−7-3×10^−4 mol/L)”, “Phenylephrine” for “NA”, “II-68” for “II-65”, “8.45±0.03” for “6.02±0.13”

## O=P1(N(CCCl)CCCl)NCCCO1 (stereo not drawn) [cyclophosphamide, Cyclophosphamide, reference compound]
Kunming mice
  polychromatic erythrocytes with micronucleus: 12 ‰

## Clc1cccc(C2CCN(CCCCn3nnc4ccccc43)CC2)c1 [II-2, N-(4-(1H-benzotriazole-1-yl)butyl)-4-(3-chlorophenyl)piperidine]
[1]
  EC50: 15.1 µM
[2]
  LD50: 362 mg/kg

## CCOC(=O)C1=C(COCCN)NC(C)=C(C(=O)OC)C1c1ccccc1Cl (stereo not drawn) [amlodipine, Amlodipine Besylate, reference compound]
Ca^2+ channel
  PA2 value against CaCl2 contraction: 6.99±0.05 and 7.15±0.288

## COc1cc2nc(N3CCN(C(=O)C4COc5ccccc5O4)CC3)nc(N)c2cc1OC (stereo not drawn) [doxazosin, Doxazosin Mesylate, reference compound]
α1 receptors; Phenylephrine cumulative contraction
  PA2 value against Phenylephrine contraction: 7.52±0.04
α1 receptors; noradrenaline (NA) cumulative contraction
  PA2 value against NA contraction: 7.52±0.04 and 7.16±0.24
